Results published in patent US12337037B2, “Taxol conjugate compounds, pharmaceutical compositions comprising the same, and methods for their use” (N1 Life, Inc, priority 2021, dated 2025).
Like-named read-outs stand apart in the source and are kept apart here.

Tests used:
[1] = test system: MCF7/ADR multidrug-resistant breast cancer cell; experiment: cells; conditions: read-out: IC50 nM
Protocol: (§1) Cytotoxicity Assay—CCK8 Cancer Cells
(§2) The CCK-8 assay was applied to study the cytotoxicity of the peptide drug conjugates and their inhibition of proliferation of cancer cells. First, 2˜10×10^3 cells (depending on the rate of growth of different cell lines) with 100 μL, DMEM media were seeded in normal culture medium into each well of a 96-well plate. The cells were then cultured overnight at 37° C. with 4˜5% CO2. Different doses (4000, 2000, 1000, 500 nM for Hep3B, Hep G2 and MCF7/MBA-MD-231; 1000, 333.3, 100.0, 33.33, 3.333, 1.000, 0.333 nM for MCF7/ADR, 22Rv1, CNE1, HCT116, DLD-1) of Taxol and peptide drugs were added. After 48˜72 hour incubation, CCK-8 solution was added to each well. The cells were then incubated at 37° C. for 4 hours. The optical density was measured at 450/650 nm using a multiscan spectrometer (PerkinElmer's EnSpire Multilabel Plate Reader). The optical density is linearly proportional to the number of living cells in the sample:
(§3) The plate layout for MCF7/ADR, 22Rv1, CNE1, HCT116, DLD-1 cell lines is shown below.

[2] = test system: HCT116 human colorectal carcinoma cell; experiment: cells
Protocol: as §1, §2, §3

[3] = test system: 22Rv1 human prostate carcinoma epithelial cell line; experiment: cells
Protocol: as §1, §2, §3

[4] = test system: CNE1 nasopharyngeal carcinoma cell line; experiment: cells; conditions: read-out: IC50 nM
Protocol: as §1, §2, §3

[5] = test system: DLD-1 colorectal adenocarcinoma cell line; experiment: cells
Protocol: as §1, §2, §3

[6] = test system: liver cancer Hep 3B cells; experiment: CCK-8 cytotoxicity / anti-proliferation assay, Hep 3B; assay type: cell-based; conditions: for Anti-proliferation %: 4 μM
Protocol: as §1
as §2, with “sample: […]” for “sample:”

[7] = Safety: animal body weight change after dosing, tumor bearing mice; conditions: for Weight gain (%): day 0 to day 21, IP Q5D
Source text: Animals: Female athymic nude mice were used in this study. The experimental mice were purchased from Shibefu (Beijing) Biotechnology Co., Ltd. (QC number: SCXK Beijing 2019-0010) and maintained in a High Efficiency Particulate Air Filter (HEPA) filtered environment with cages, food and bedding sterilized by irradiation or autoclaving.
Establishment of peritoneal disseminated metastasis model of human ovarian cancer: Human ovarian cancer (SKOV-3-GFP) cells in logarithmic growth period were digested with 0.25% trypsin, rinsed with phosphate buffer (PBS) twice, centrifuged, and suspended with serum-free RPMI1640 medium. Cell suspension (6×10^6/120 μL/mouse) was injected into the peritoneal cavity of each experimental mouse for the establishment of peritoneal disseminated metastasis model of human ovarian cancer.
Groups, testing articles and treatment protocols: Day 4 after cell inoculation, all mice were subjected to systemic imaging using FluorVivo Model-100 (INDEC biosystems, CA, USA). Mice with a small deviation from average tumor load were enrolled in the study. All animals were randomly allocated to the different study groups, 6 mice in each group. Dosing schedule was Q5D (day 0, 5, 10), dosing volume was 10 μl/g, and administration route was intraperitoneal injection. Each dose of Compound 3 or Compound 5 was 9.6 mg/kg (equimolar to 2.5 mg/kg Taxol) and each dose of Taxol was 10 mg/kg. Taxol working solutions were prepared from 6 mg/mL stock solution, while Compounds were dissolved in PBS (pH 7.4) and filtered through 0.22 μm filter.
Monitoring of the experimental mice: During the period of the study, all experimental mice were checked daily for mortality or signs of morbidity. Images of tumor progression were acquired three times a week during the period of the study with the FluorVivo imaging system, Model 100/Mag (INDEC BioSystems, CA, USA). The body weights of the mice were measured three times a week during the period of the study.
Study endpoint: On Day 21 after administration, animals were euthanized by inhalation of excessive anesthetics. All tumors were exposed for imaging (under the same exposure conditions), after which the tumors were removed and weighed with an electronic balance (Sartorius BS 124 S, Germany). The tumor samples were then stored in formalin solution.
Statistical methods used in efficacy evaluation: Comparison of body weights and tumor burdens in different groups were analyzed using EXCEL t-test with an α=0.05 (two-sided).

[8] = test system: Human ovarian cancer (SKOV-3-GFP) cells; experiment: Efficacy in metastatic ovarian cancer model (peritoneal disseminated metastasis); assay type: in vivo, Female athymic nude mice; conditions: for mean tumor fluorescence area as % of the Vehicle (PBS) group / Average tumor area on day 0 (MEAN ± SD) / Average tumor area on day 21 (MEAN ± SD) / Mean tumor mass (g) (MEAN ± SD) / Average tumor inhibitory rate (%) (MEAN ± SD): Taxol 10 mg/kg; for mean tumor fluorescence area as % of the Vehicle (PBS) group: Compound 3 / Compound 5 9.6 mg/kg IP Q5D; for Average tumor area on day 0 (MEAN ± SD): baseline fluorescence area; for Average tumor area on day 21 (MEAN ± SD): fluorescence area; for Mean tumor mass (g) (MEAN ± SD): conjugate 9.6 mg/kg IP Q5D; for Average tumor inhibitory rate (%) (MEAN ± SD): from final tumor weights
Protocol: The tumor samples were then stored in formalin solution.
Method: The method was the same as described for Biological Example 4.
Endpoint tumor load of each group: At Day 21 after administration, the tumor load of each group was calculated by dissecting and weighing the tumor in the abdominal cavity. The vehicle was the control.
Tumor inhibitory rate (IR): Tumor IR was calculated based on the final average tumor weights according to the formula: IR (%)=(1-treatment(t)/control(c))×100

[9] = separate experiment, 38.4 mg/kg, 3 Q5D doses, tumor bearing mice
[10] = Table 8A (Compound 3 set), Compd 3 9.6 mg/kg IP Q5D
[11] = Table 9B (titled Compound 5 set), Day 21
[12] = Table 10A (Compound 3 set), Day 21, Compd 3 9.6 mg/kg IP Q5D
[13] = Table 8B (Compound 5 set), Compd 5 9.6 mg/kg IP Q5D

CC(=O)N[C@@H](CSSCCCC(=O)OC(C(=O)O[C@H]1C[C@@]2(O)[C@@H](OC(=O)c3ccccc3)[C@@H]3[C@]4(OC(C)=O)CO[C@@H]4C[C@H](O)[C@@]3(C)C(=O)[C@H](OC(C)=O)C(=C1C)C2(C)C)[C@@H](NC(=O)c1ccccc1)c1ccccc1)C(=O)N[C@H](CCCNC(=N)N)C(=O)N[C@H](CCCNC(=N)N)C(=O)N[C@H](CCCNC(=N)N)C(=O)N[C@H](CCCNC(=N)N)C(=O)N[C@H](CCCNC(=N)N)C(=O)N[C@H](CCCNC(=N)N)C(=O)N[C@H](CCCNC(=N)N)C(=O)N[C@H](CCCNC(=N)N)C(N)=O (stereo partly drawn) [Compound 3, Ac-L-Cysteine (paclitaxel-4-mercaptobutanoate)-D-Arginine8-NH2]
IC50 ([1]; MCF7/ADR cells): 438 nM | IC50 ([2]; read-out: IC50 nM, HCT116 cells): 21.5 nM | IC50 ([3]; read-out: IC50 nM, 22Rv1 cells): 21.6 nM | IC50 ([4]; CNE1 cells): 15.9 nM | IC50 ([5]; read-out: IC50 nM, DLD-1 cells): 62 nM | Anti-proliferation % [6]: 36.0% | cancer cell inhibition compared to Compound 5 (FIG. 2A) ([6]; all tested concentrations (500-4000 nM)): substantially superior to cancer cell inhibition compared to Compound 5 at all tested concentrations | body weight higher compared with the vehicle (PBS) group ([7]; 9.6 mg/kg IP Q5D, end of experiment): about 24% | Weight on day 21 (MEAN ± SD) ([7]; Table 7A (Compound 3 set), IP Q5D (day 0, 5, 10), Taxol 10 mg/kg, Compd 3 9.6 mg/kg): 18.5 ± 1.4 | Weight on day 0 (MEAN ± SD) ([7]; Table 7A (Compound 3 set), baseline, IP Q5D (day 0, 5, 10), Taxol 10 mg/kg, Compd 3 9.6 mg/kg): 16.3 ± 1.0 | Weight gain (%) ([7]; Table 7A (Compound 3 set), Taxol 10 mg/kg, Compd 3 9.6 mg/kg): about 13% | Weight gain (%) ([7]; Table 7A (Compound 3 set), Taxol 10 mg/kg, Compd 3 9.6 mg/kg, listed as Compd 3): 13% | animal deaths [7, 9]: no animal deaths were reported | body weight change on Day 21 [7, 9]: +22.1% | tumor inhibition effect, better than Compound 5 ([8]; 9.6 mg/kg): at least 10% | acute toxic effect / animal death ([8]; 9.6 mg/kg IP Q5D, ovarian cancer model): no obvious acute toxic effect | average tumor fluorescence area as % of the Taxol (10 mg/kg) group ([8]; Day 21, 9.6 mg/kg IP Q5D): about 100% | average tumor weight as % of the Vehicle group ([8]; Day 21, 9.6 mg/kg IP Q5D): about 10% | mean tumor fluorescence area as % of the Vehicle (PBS) group ([8]; Day 21): about 20% | Average tumor area on day 0 (MEAN ± SD) [8, 10]: 18.6 ± 5.3 | Average tumor area on day 21 (MEAN ± SD) [8, 10]: 30.9 ± 24.2 | Mean tumor mass (g) (MEAN ± SD) [8, 11]: 0.2555 ± 0.1388 g | Average tumor inhibitory rate (%) (MEAN ± SD) [8, 12]: 90±8% | Average tumor inhibitory rate (%) (MEAN ± SD) ([8]; Table 10A (Compound 3 set), Day 21, Compd 3 9.6 mg/kg IP Q5D, listed as Compd 3): 90 ± 8%

CC(=O)O[C@H]1C(=O)[C@@]2(C)[C@H]([C@H](OC(=O)c3ccccc3)[C@]3(O)C[C@H](OC(=O)[C@H](O)[C@@H](NC(=O)c4ccccc4)c4ccccc4)C(C)=C1C3(C)C)[C@]1(OC(C)=O)CO[C@@H]1C[C@@H]2O [Taxol, paclitaxel]
IC50 ([1]; Homo sapiens, NCI/ADR-RES): > 1000 nM | IC50 ([2]; Homo sapiens, HCT-116, read-out: IC50 nM): 2.79 nM | IC50 ([3]; Homo sapiens, 22Rv1, read-out: IC50 nM): 4.95 nM | IC50 [4]: 1.12 nM | IC50 ([5]; Homo sapiens, DLD-1, read-out: IC50 nM): 9.98 nM | Anti-proliferation % [6]: 11.5% | mean tumor fluorescence area as % of the Vehicle (PBS) group ([8]; Day 21): 8-16% | Average tumor area on day 0 (MEAN ± SD) [8, 10]: 18.4 ± 3.3 | Average tumor area on day 21 (MEAN ± SD) [8, 10]: 24.8 ± 27.1 | Average tumor area on day 0 (MEAN ± SD) [8, 13]: 22.8 ± 4.1 | Average tumor area on day 21 (MEAN ± SD) [8, 13]: 22.7 ± 15.5 | Mean tumor mass (g) (MEAN ± SD) ([8]; Table 9A (titled Compound 3 set), Day 21): 0.174 ± 0.141 g | Mean tumor mass (g) (MEAN ± SD) [8, 11]: 0.1970 ± 0.1248 g | Average tumor inhibitory rate (%) (MEAN ± SD) [8, 12]: 90 ± 8% | Average tumor inhibitory rate (%) (MEAN ± SD) ([8]; Table 10B (Compound 5 set), Day 21, Compd 5 9.6 mg/kg IP Q5D): 84 ± 10%
